Measured values published in patent US20090325219A1, “DEVICE, SYSTEM AND ASSAY FOR MEASURING CELL MOTILITY” (The Queen's University of Belfast, priority 2006, published 2009).
“Also recorded” adds a separate entry of the source.

Tests used:
Format in all cases: cell-based, rat
AY-27 cells [1] = test: Assay of present invention (motility towards agarose chemo-attractant matrix); details: compared to Mock-TGF and SdM
Description: Ten millimetre coverslips were seeded with AY-27 cells at a density of 5×10^5 and grown to 100% confluency in 12-well plates. The AY-27 cells at 100% confluency on 10 mm coverslips were removed (A) and washed vigorously using SdM medium (B).
In a separate 12-well culture plate, 1 ml of heated 2% agarose matrix consisting of 50% FCS and 50% supplemented RPMI thoroughly mixed was pipetted into each well, and allowed to cool and solidify (C).
A sterile 12 mm diameter metal ring was then used to cut out a circular area in the centre of the matrix (D & E) to provide a cell receiving zone and also to expose a portion of the supporting substrate to form the bridging portion between the cell receiving zone and the agent receiving matrix.
AY-27 cells on the 10 mm coverslip were then placed into the empty tissue receiving zone from which the agarose had been removed (F) such that the sample is spaced apart from and surrounded by the agarose (chemo-attractant agent receiving matrix).
An indentation provided in the cell receiving zone, allows reproducible locating of the coverslip including the cells to be tested in the cell receiving zone. The indentation is of suitable depth such that the top surface of the located slide is substantially flush with surrounding surface of the receiving surface. […]

AY-27 cells [2] = test: Conventional Matrigel invasion assay; details: 24 h and 48 h, compared to Mock-TGF and SdM, p<0.05 Student's t-test
Description: FCS (10%) in 0.75 ml RPMI-1640 acted as the chemo-attractant. This was added to the lower compartment of 24-well BioCoat Matrigel invasion chambers (Becton Dickinson Labware, Bedford, Mass.) with an 8-μm pore polycarbonate filter coated with Matrigel. In the upper compartment, 8×10^5 cells/well in SdM were placed in triplicate wells and incubated for 24 h and 48 h at 37° C. in a humidified incubator with 5% CO2. After incubation, the cells that had passed through the filter into the lower wells were stained with Speedy-Diff Rapid Giemsa (Clin-Tech Ltd, Essex, UK. #61078, #61079, #61080) and counted by assessing 10 random high power fields images using ×400 magnification on a Leitz Labrodux K (Germany) light microscope.
(§1) FIG. 10 details results of a conventional motility assay (A) and the Matrigel invasion assay (B). […] Cells were treated with Mock-TGF (i), SdM (ii) or 3 ng.ml TGF-β1 (iii) and images were captured after 24 h and 48 h. The percentage of wound healing was calculated by counting the number of boxes at least half covered by cells in the 5 mm×5 mm grid-rule (A). […] Cells were treated with Mock-TGF (i), SdM (ii) or TGF-β1 (iii) and cells that passed successfully through the matrigel membrane after 24 h and after 48 h were Giemsa stained and enumerated.

AY-27 cells [3] = test: Conventional scratch wound assay; details: compared to SdM and Mock-TGF
Description: Sub-confluent AY-27 cells were detached and 5×10^6 were seeded into 6-well tissue culture plates. The cells were grown to 100% confluency before treatment with Mock-TGF, SdM or 3 ng/ml TGF-β1 in duplicates for 24 h and 48 h. An in vitro “scratch wound” was created by scraping the confluent cell monolayer with a sterile pipette tip to make an approximate 1.0 mm gap. Three fixed points were marked in each well and phase-contrast images were captured at these same points over the 24 h and 48 h treatment course. The area of cells that had migrated beyond the ‘wound’ was estimated by superimposing a 5 mm×5 mm grid over the ‘wound’, and this was expressed as percentage when divided with the area of the ‘wound’.
as §1

TGF-β1: Recombinant human TGF-β1 (R&D systems), a known promoter to tumour progression
numbers of migrating cells (grid boxes covered) (AY-27 cells [1]; 3 ng/ml TGF-β1, 24 h): no significant differences
numbers of migrating cells (grid boxes covered) (AY-27 cells [1]; 3 ng/ml TGF-β1, 48 h, p<0.05 student t-test): significantly more cells had migrated; also recorded: significantly greater numbers
cells migrated across the matrigel (AY-27 cells [2]): Significantly more cells were present in the membrane; also recorded: significantly more TGF-β1 treated cells migrated across the matrigel
motility / wound closure (AY-27 cells [3]; 3 ng/ml TGF-β1, 24 h): earlier wound closure
motility / wound closure (AY-27 cells [3]; 3 ng/ml TGF-β1, 48 h): this effect did not persist
